Inhibition and IC50 data for eight compounds are collected here from ChEMBL document CHEMBL1156986, “Derivatives of schisandrin with increased inhibitory potential on prostaglandin E(2) and leukotriene B(4) formation in vitro” (Bioorg Med Chem, 2010).

Calls of active or inactive are those of the source. No cut-off for these calls is given here.

Test [1] deals with T1, Prostaglandin G/H synthase 1 (Ovis aries) (UniProt P05979).
T1 sequence (whole entry): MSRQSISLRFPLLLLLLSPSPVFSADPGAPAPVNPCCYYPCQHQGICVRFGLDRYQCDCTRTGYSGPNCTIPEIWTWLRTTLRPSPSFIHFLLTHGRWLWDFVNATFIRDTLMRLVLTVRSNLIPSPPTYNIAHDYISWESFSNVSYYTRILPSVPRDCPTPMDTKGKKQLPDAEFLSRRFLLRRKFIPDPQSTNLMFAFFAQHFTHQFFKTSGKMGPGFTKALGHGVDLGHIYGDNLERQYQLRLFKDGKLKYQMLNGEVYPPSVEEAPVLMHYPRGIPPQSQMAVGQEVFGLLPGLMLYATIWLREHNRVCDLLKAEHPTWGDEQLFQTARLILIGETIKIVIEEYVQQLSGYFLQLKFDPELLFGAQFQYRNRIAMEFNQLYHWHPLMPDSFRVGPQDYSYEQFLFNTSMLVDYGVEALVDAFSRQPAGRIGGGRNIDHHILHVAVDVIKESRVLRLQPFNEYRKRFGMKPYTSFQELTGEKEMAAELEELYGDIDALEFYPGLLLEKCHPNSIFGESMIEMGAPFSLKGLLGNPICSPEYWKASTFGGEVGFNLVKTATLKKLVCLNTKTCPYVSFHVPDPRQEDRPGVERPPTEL
The test is described as follows: Inhibition of ram seminal vesicle COX1 at 50 uM assessed as PGE2 concentration.

For test [2], the target named is T2, Prostaglandin G/H synthase 2 (Ovis aries) (UniProt P79208).
T2 sequence (whole entry): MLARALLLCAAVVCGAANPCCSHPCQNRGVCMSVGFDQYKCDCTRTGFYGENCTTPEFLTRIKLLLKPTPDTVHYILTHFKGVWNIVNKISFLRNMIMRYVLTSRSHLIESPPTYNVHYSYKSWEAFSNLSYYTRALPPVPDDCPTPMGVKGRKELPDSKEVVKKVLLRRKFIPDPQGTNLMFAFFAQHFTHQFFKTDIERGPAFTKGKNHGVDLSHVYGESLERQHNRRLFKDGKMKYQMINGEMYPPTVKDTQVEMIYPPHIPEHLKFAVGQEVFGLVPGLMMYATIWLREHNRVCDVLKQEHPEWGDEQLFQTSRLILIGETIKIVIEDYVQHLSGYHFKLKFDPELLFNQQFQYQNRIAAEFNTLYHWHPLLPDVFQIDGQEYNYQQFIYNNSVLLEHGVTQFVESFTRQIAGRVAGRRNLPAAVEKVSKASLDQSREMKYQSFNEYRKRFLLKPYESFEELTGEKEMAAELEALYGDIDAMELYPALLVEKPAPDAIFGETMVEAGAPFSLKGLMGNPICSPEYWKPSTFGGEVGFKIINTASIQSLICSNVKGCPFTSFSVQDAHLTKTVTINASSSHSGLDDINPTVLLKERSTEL
The test is described as follows: Inhibition of ram seminal vesicle COX2 at 50 uM assessed as PGE2 level by EIA. It counts as tissue-based.

The target of test [3] is T3, Polyunsaturated fatty acid 5-lipoxygenase (Homo sapiens, UniProt P09917).
T3 sequence (P09917 whole entry): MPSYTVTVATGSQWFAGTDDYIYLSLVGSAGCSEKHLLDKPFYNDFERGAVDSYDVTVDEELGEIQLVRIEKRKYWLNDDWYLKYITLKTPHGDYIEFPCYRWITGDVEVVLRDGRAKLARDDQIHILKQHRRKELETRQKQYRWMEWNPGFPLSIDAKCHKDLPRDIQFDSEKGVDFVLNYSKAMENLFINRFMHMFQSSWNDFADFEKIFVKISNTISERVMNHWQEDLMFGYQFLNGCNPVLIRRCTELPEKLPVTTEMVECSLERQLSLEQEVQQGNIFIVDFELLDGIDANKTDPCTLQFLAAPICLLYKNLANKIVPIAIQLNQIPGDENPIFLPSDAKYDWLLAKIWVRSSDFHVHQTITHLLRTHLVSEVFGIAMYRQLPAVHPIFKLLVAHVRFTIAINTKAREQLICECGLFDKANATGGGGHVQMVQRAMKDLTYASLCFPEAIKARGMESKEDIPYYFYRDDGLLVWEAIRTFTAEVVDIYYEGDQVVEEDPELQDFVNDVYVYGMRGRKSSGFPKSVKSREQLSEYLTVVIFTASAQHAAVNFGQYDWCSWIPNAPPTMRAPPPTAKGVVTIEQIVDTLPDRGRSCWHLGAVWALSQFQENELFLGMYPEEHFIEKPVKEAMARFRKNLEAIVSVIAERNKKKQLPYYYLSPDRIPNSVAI
The test is described as follows: Inhibition of 5-LOX-mediated LTB4 production in stimulated human neutrophile granulocytes after 10 mins by EIA.

In test [4] the target is T4, Polyunsaturated fatty acid 5-lipoxygenase (Homo sapiens) (UniProt P09917).
T4 sequence (whole entry): T3 sequence (P09917 whole entry)
Nature of the test: Inhibition of 5-LOX-mediated LTB4 production from stimulated human neutrophile granulocytes at 50 uM after 10 mins by EIA.

Test [5] deals with T5, Prostaglandin G/H synthase 2 (Ovis aries, UniProt P79208).
T5 sequence (P79208 whole entry): T2 sequence (whole entry)
Nature of the test: Inhibition of sheep placental cotyledens COX2 assessed as PGE2 level by EIA.

For orientation: inhibition means the percentage by which the read-out fell short of the control. The IC50 is the midpoint of a concentration-inhibition curve.

Take `COc1cc2c(c(O)c1O)-c1c(cc(OC)c(O)c1O)C[C@](C)(O)[C@@H](C)C2`: the inhibition entry in test [1] and in test [2] was “inactive” each time.
Turning to `COc1cc2c(c(OC)c1OC)-c1c(cc(OC)c(OC)c1OC)CC(C)(C(C)I)C2` (stereo unspecified), in test [1], the inhibition result was “inactive”. The compound also displayed a 50% inhibitory concentration (IC50) in test [3] of 4.5 µM.
As for `C/C=C(/C)C(=O)Oc1c(OC)c(OC)cc2c1-c1c(cc(OC)c(OC)c1OC)C[C@](C)(O)[C@@H](C)C2`, the inhibition result in test [1], in test [2] and in test [4] was “inactive” throughout.
Regarding `COc1cc2c(c(OC)c1OC)-c1c(cc(OC)c(OC)c1OC)C[C@](C)(O)[C@@H](C)C2`, the inhibition entry in test [1], in test [2] and in test [4] was “inactive” each time.
Take `CC(O)C1(C)Cc2cc(O)c(O)c(O)c2-c2c(cc(O)c(O)c2O)C1` (stereo unspecified): in test [5], the IC50 came out at 32.1 µM. Moreover, the inhibition entry in test [1] was “inactive”. The same compound came in with an inhibition in test [4] of 37.3%.
As to `COc1cc2c(c(O)c1O)-c1c(cc(OC)c(O)c1O)CC(C)(C(C)O)C2` (stereo unspecified), the inhibition result in test [1] was “inactive”. The compound also showed an IC50 in test [3] of 4.2 µM.
Consider `COc1cc2c(c(OC)c1OC)-c1c(cc3c(c1OC)OCO3)C[C@H](C)[C@](C)(O)C2`, for which the inhibition result in test [1], in test [2] and in test [4] was “inactive” each time.
Turning to `C/C=C(\C)C(=O)Oc1c(OC)c(OC)cc2c1-c1c(cc(OC)c(OC)c1OC)C[C@](C)(O)[C@@H](C)C2`, the inhibition result in test [1], in test [2] and in test [4] was “inactive” each time.
